One test addresses T1, GluD1-T649I (Homo sapiens, UniProt Q9ULK0, T649I).
T1 construct: expressed in transfected cells; host or cells: Xenopus laevis oocytes injected with cRNA
T1 sequence (Q9ULK0 21-1009 T649I): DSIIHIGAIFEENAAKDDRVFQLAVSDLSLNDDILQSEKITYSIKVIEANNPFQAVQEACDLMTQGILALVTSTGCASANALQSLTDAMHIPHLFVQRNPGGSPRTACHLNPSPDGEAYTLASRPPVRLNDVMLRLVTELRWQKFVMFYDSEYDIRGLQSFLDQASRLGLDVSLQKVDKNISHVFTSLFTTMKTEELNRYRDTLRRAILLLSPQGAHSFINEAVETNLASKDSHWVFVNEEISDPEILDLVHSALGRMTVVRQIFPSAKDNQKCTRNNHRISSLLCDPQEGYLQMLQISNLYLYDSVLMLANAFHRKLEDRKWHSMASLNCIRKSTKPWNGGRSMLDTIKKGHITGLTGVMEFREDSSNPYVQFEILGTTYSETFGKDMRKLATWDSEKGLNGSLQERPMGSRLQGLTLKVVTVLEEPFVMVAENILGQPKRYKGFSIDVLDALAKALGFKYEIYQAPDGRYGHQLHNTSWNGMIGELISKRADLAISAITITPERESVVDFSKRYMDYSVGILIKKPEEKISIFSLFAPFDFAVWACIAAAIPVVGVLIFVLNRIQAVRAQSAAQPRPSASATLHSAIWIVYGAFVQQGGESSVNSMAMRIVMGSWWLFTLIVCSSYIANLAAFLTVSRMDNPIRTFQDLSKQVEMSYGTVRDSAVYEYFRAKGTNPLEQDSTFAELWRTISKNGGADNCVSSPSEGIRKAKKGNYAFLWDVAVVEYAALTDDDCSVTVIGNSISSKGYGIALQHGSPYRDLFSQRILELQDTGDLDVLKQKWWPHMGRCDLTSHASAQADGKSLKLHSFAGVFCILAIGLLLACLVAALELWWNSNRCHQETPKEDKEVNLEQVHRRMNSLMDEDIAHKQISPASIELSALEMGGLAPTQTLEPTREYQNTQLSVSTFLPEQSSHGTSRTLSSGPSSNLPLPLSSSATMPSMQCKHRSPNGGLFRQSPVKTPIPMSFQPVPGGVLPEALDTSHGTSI
The test can be described thus: TEVC of constitutive current, Xenopus oocytes expressing GluD1-T649I. It is filed as cell-based. Conditions: positive = increase, negative = decrease of activity.

For a further test, the target named is T2, GluD2-WT (Rattus norvegicus, UniProt Q63226).
T2 construct: expressed in transfected cells; host or cells: Xenopus laevis oocytes injected with cRNA
T2 sequence (Q63226 24-1007): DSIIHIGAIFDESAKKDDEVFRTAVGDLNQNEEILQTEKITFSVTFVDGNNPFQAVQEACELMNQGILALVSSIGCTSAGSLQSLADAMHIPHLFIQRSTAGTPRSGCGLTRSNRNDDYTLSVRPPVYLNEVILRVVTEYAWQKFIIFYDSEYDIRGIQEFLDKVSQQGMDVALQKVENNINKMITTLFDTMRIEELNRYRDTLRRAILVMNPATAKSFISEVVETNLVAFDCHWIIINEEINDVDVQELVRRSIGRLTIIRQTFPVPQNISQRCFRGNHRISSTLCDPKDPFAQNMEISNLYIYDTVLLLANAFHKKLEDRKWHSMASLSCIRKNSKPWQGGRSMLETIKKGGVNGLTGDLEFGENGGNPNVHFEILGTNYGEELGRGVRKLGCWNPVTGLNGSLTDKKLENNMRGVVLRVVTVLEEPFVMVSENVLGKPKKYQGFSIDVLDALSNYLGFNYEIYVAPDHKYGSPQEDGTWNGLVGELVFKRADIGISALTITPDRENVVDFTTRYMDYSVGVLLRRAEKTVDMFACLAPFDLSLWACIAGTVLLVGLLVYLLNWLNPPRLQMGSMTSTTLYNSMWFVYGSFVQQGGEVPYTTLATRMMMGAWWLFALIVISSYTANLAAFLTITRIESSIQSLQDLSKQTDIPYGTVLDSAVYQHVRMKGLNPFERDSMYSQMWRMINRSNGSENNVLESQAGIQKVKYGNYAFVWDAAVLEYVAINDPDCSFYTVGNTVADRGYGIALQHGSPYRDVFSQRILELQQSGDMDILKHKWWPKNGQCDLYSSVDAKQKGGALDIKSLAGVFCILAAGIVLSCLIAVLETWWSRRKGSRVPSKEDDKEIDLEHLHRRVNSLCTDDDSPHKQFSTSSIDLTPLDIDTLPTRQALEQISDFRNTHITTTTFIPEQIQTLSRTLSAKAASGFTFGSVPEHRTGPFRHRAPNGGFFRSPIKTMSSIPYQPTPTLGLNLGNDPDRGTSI
Description: TEVC of constitutive current, Xenopus oocytes expressing GluD2-WT. It is filed as cell-based.

In a further test the target is GluD2-A654T receptor. More on the design: method as in PMID 12606689. Conditions: read-out: Pentamidine IC50; cited from earlier work.

This is an account of results in paper PMC10840383, “Clinical features, functional consequences, and rescue pharmacology of missense GRID1 and GRID2 human variants” (Human Molecular Genetics, 2023).

Take `N[C@H](CO)C(=O)O` [D-serine]: the “D-Serine effect (Baseline −10 mM D-Serine)” value is on record as 8.9 ± 1.2 (9) nA at GluD1-T649I (10 mM D-serine) and −3.6 ± 1.0 (14) nA on GluD2-WT (10 mM D-serine, positive = increase, negative = decrease of activity). Moreover, the “Effect on difference current, in words” value at GluD2-WT (10 mM D-serine) is reported as “minimal activity”.
`N=C(N)c1ccc(OCCCCCOc2ccc(C(=N)N)cc2)cc1` [Pentamidine, pentamidine]: the “Pentamidine effect (Baseline −100 μM Pentamidine)” value was −45 ± 9.5 (9) nA at GluD1-T649I (100 μM pentamidine) and 3.6 ± 4.8 (14) nA on GluD2-WT (100 μM pentamidine, positive = increase, negative = decrease of activity). The IC50 on GluD2-A654T receptor is 11 µM.

Usually IC50 stands for the point on the concentration scale where inhibition reaches its midpoint.
